Results: patent US4735959A, “Carboxylic acid amides and pharmaceutical compositions containing them” (Dr. Karl Thomae GmbH, priority 1981, dated 1988)
Like-named read-outs stand apart in the source and are kept apart here.

Experiments:
Type in all cases: in vivo
blood-sugar = assay: Blood-sugar lowering activity in starved female rats after oral administration; conditions: for change in vivo at 1 mg/kg / change in vivo at 10 mg/kg / change in vivo at 5 mg/kg: Rattus norvegicus, po, read-out: Blood-sugar lowering activity, percent as compared with the controls; for change in vivo at 10 mg/kg: 10 mg/kg orally (footnote *)
Description: The blood-sugar lowering activity of the test compounds was determined in home-bred female rats with weights of from 180 to 220 grams. Twenty-four hours before starting the test the animals were starved. Before the test the compounds were suspended in 1.5% methyl cellulose and administered to the animals by means of an esophageal tube.
Blood was taken from the retroorbital plexus vein before administration of the test compounds as well as each of 1, 2, 3, and 4 hours after administration. Fifty microliters of each sample were deproteinized with 0.5 ml of 0.33N perchloric acid and centrifuged. The glucose content was determined in the supernatant according to the Hexokinase method by means of an analysis photometer. The statistical evalulation was performed with the t-test according to Student with p=0.05.

[1] = Acute toxicity in female and male mice after oral administration of a single dose; conditions: mouse, in vivo, observation time 14 days, read-out: Peroral Toxicity
Description: (§1) The acute toxicity was determined in home-bred female and male mice having body weights of from 20 to 26 gm after oral administration (suspension in a 1% methyl cellulose solution) of a single dose. Observation time: 14 days.

mice = assay: as above; conditions: observation time 14 days
Description: as §1

[2] = 1 mg/kg orally, 2 hours, n.s. = not statistically significant
[3] = 1 mg/kg orally, 3 hours, n.s. = not statistically significant
[4] = 1 mg/kg orally, 4 hours, n.s. = not statistically significant
[5] = 1 mg/kg orally, 1 hour, n.s. = not statistically significant
[6] = 5 mg/kg orally, 1 hour, n.s. = not statistically significant
[7] = 5 mg/kg orally, 2 hours, n.s. = not statistically significant
[8] = 5 mg/kg orally, 3 hours, n.s. = not statistically significant
[9] = 5 mg/kg orally, 4 hours, n.s. = not statistically significant

Structure (SMILES) | Blood-sugar lowering activity, percent as compared with the controls (blood-sugar; [2]) | Blood-sugar lowering activity, percent as compared with the controls (blood-sugar; [3]) | Blood-sugar lowering activity, percent as compared with the controls (blood-sugar; [4]) | change in vivo at 1 mg/kg (blood-sugar; [5]) | change in vivo at 10 mg/kg (blood-sugar; 1 hour) | change in vivo at 10 mg/kg (blood-sugar; 2 hours) | change in vivo at 10 mg/kg (blood-sugar; 3 hours, n.s. = not statistically significant) | change in vivo at 10 mg/kg (blood-sugar; 4 hours, n.s. = not statistically significant) | LD50 at 336 h [1] | animals died (mice) | change in vivo at 5 mg/kg (blood-sugar; [6]) | change in vivo at 5 mg/kg (blood-sugar; [7]) | change in vivo at 5 mg/kg (blood-sugar; [8]) | change in vivo at 5 mg/kg (blood-sugar; [9]) | change in vivo at 1 mg/kg (blood-sugar; [2]) | change in vivo at 1 mg/kg (blood-sugar; [3]) | Blood-sugar lowering activity, percent as compared with the controls (blood-sugar; [9]) | change in vivo at 1 mg/kg (blood-sugar; [4])
O=C(Cc1ccc(C(=O)O)cc1)NC(c1ccccn1)c1ccccc1N1CCCCC1 (stereo not drawn) [AG, 4-[(2-Piperidino-α-(2-pyridyl)-benzyl)-aminocarbonylmethyl]-benzoic acid] | n.s. | n.s. | n.s. | -18% | -49% | -50% | -36% | -31% | > 1000 mg/kg | 0 out of 10 |  |  |  |  |  |  |  | 
O=C(Cc1ccc(C(=O)O)cc1)NC(c1ccc(F)cc1)c1ccccc1N1CCCCC1 (stereo not drawn) [AC, 4-[(α-(4-Fluoro-phenyl)-2-piperidino-benzyl)-aminocarbonylmethyl]-benzoic acid] |  |  |  |  |  |  |  |  | > 1000 mg/kg | 0 out of 10 | -36% | -37% | -36% | -33% |  |  |  | 
O=C(Cc1ccc(C(=O)O)cc1)NC(c1ccc(Cl)cc1)c1ccccc1N1CCCCC1 (stereo not drawn) [AE, 4-[(α-(4-Chloro-phenyl)-2-piperidino-benzyl)-aminocarbonylmethyl]-benzoic acid] |  |  | n.s. | -21% |  |  |  |  | > 1000 mg/kg | 0 out of 10 | -30% | -28% | -39% | -36% | -20% | -22% |  | 
Cc1cccc(C(NC(=O)Cc2ccc(C(=O)O)cc2)c2ccccc2N2CCCCC2)c1 (stereo not drawn) [AB, 4-[(α-(3-Methyl-phenyl)-2-piperidino-benzyl)-aminocarbonylmethyl]-benzoic acid] |  | n.s. | n.s. | -26% |  |  |  |  | > 1000 mg/kg | 0 out of 10 | -43% | -38% | -36% | -27% | -15% |  |  | 
Cc1ccc(C(NC(=O)Cc2ccc(C(=O)O)cc2)c2ccccc2N2CCCCC2)cc1 (stereo not drawn) [AA, 4-[(α-(4-Methyl-phenyl)-2-piperidino-benzyl)-aminocarbonylmethyl]-benzoic acid] |  |  | n.s. | -15% |  |  |  |  | > 1000 mg/kg | 0 out of 10 | -30% | -33% | -14% |  | -15% | -13% | n.s. | 
CC/C=C(\NC(=O)Cc1ccc(C(=O)O)cc1)c1ccccc1N1CCCCC1 [A, (Z)-4-[(1-(2-Piperidino-phenyl)-1-buten-1yl)-aminocarbonylmethyl]-benzoicacid] |  |  |  | -43% |  |  |  |  | > 1000 mg/kg | 0 out of 6 |  |  |  |  | -40% | -33% |  | -35%
CC/C=C(/NC(=O)Cc1ccc(C(=O)O)cc1)c1ccccc1N1CCCCC1 [C, (E)-4-[(1-(2-Piperidino-phenyl)-1-buten-1-yl)-aminocarbonylmethyl]-benzoic acid] |  |  |  | -43% |  |  |  |  | > 2000 mg/kg | 0 out of 6 |  |  |  |  | -43% | -37% |  | -38%
CC(NC(=O)Cc1ccc(C(=O)O)cc1)c1ccccc1N1CCCCC1 (racemic) [AT, (±)-4-[(1-(2-Piperidino-phenyl)-1-ethyl)-aminocarbonylmethyl]-benzoicacid] |  | n.s. |  | -34% |  |  |  |  | > 2000 mg/kg | 1 out of 10 | -45% | -45% | -36% | -32% | -26% |  |  | -11%
O=C(Cc1ccc(C(=O)O)cc1)NC(c1ccccc1F)c1ccccc1N1CCCCC1 (stereo not drawn) [AD, 4-[(α-(2-Fluoro-phenyl)-2-piperidino-benzyl)-aminocarbonylmethyl]-benzoic acid] |  |  |  | -16% |  |  |  |  | > 1000 mg/kg | 0 out of 10 | -28% | -32% | -27% | -28% | -20% | -17% |  | -14%
CCCC(NC(=O)Cc1ccc(C(=O)O)cc1)c1ccccc1N1CCCCC1 (racemic) [J, (±)-4-[(1-(2-Piperidino-phenyl)-1-butyl)-aminocarbonylmethyl]-benzoic acid] |  |  |  | -38% |  |  |  |  | > 2000 mg/kg | 0 out of 10 | -44% | -37% | -42% | -42% | -32% | -34% |  | -29%
O=C(Cc1ccc(C(=O)O)cc1)NC(c1ccccc1)c1ccccc1N1CCCCC1 (racemic) [AV, (±)-4-[(2-Piperidino-benzhydryl)-aminocarbonylmethyl]-benzoic acid] |  |  |  | -41% |  |  |  |  | > 2000 mg/kg | 0 out of 10 | -44% | -38% | -41% | -37% | -38% | -26% |  | -24%
